Measurements from paper PMC7503712, “Enterovirus Inhibition by Hinged Aromatic Compounds with Polynuclei” (Molecules, 2020).

Columns and labels:
EV71 strain BrCr = assay: Antiviral activity on the replication of EV71 strain BrCr in RD cells; type: cell-based, Enterovirus 71; conditions: for EC50: Enterovirus A, virus replication inhibited by 50%
Protocol: (§1) The selectivity index (SI = CC50/EC50), a measure for the therapeutic window of the compound in the assay system, was then calculated. The antiviral effect of hinged aromatic compounds that adversely affected the host cell metabolism was likely as a result of a pleiotropic or non-specific effect on the host cell. […].
(§2) The biological activity of the 18 hinged aromatic compounds against EV71 was evaluated in a cell-based assay with live enteroviruses. The EV71 strains were originated from Chang Gung University of Taiwan. The rhabdomyosarcoma (RD) cells, grown for 3–4 days in tissue culture flasks, were harvested and seeded in MEM Rega 3 medium (Gibco, Merelbeke, Belgium) supplemented with fetal bovine serum (FBS, 2.0%, Integro, Merelbeke, Belgium), 200 mM L-glutamine (Gibco, Merelbeke, Belgium), and aqueous 7.5% NaHCO3 (Gibco, Merelbeke, Belgium). The microtitre plates were incubated overnight to produce a non-confluent cell monolayer. Then assay plates were transferred to a liquid handling platform, on which a sample dilution series was prepared at a sample concentration of 0.100 mg/mL or lower in DMSO. After preparation of the hinged compound dilution series, virus was added to the wells with a dilution optimized for each EV71 strain. The final, maximal DMSO concentration that reached in the assay wells with the highest sample input (1.0%) was tolerated well by the cells. The assay plates were returned to the incubator at 37 °C (5.0% CO2) for four days. According to the manufacturers’ instructions (Promega, Leiden, The Netherlands), residual cell viability was then quantified by use of an MTS readout method.

[1] = Adverse effect on host cell metabolism (MTS method) in RD cells; type: cell-based; conditions: human, RD (rhabdomyosarcoma) cells, RD host cell metabolism reduced by 50%
Protocol: as §1, §2

[2] = Lipophilicity by shake-flask method with UV spectrometry; type: physicochemical; conditions: n-octane and water, 25 ± 1 °C, average of three independent experiments
Protocol: The log P values associated with the molecular lipophilicity of all hinged aromatic compounds with polynuclei were obtained by use of the ''shake-flask method'' [46]. The partition coefficient was measured as the ratio of the equilibrium concentrations of a dissolved hinged compound in a two-phase system consisting of n-octane and water, which are immiscible solvents. The temperature was kept constant at 25 ± 1 °C. The analytical method employed was UV spectrometry.

Row | EC50 (EV71 strain BrCr) | logD hydrocarbon water [2] | melting point | Compound | SI (selectivity index = CC50/EC50) (EV71 strain BrCr) | CC50 at 4 days [1]
1 | 16.2 ± 1 µM | 3.42 |  | O=C(c1ccc(-c2cccc(-c3cc[nH]n3)c2)o1)N1CCCC1 [10a, (5-[3-(1H-Pyrazol-3-yl)phenyl]furan-2-yl)(pyrrolidin-1-yl)methanone] | 7.30 | 119 ± 2 µM
2 | 2.14 ± 0.12 µM | 3.87 |  | O=C(c1ccc(-c2cccc(-c3cc[nH]n3)c2)o1)N1CCCCC1 [10b, Piperidin-1-yl(5-[3-(1H-pyrazol-3-yl)phenyl]furan-2-yl)methanone] | 6.70 | 14.3 ± 1 µM
3 | 6.16 ± 0.15 µM | 4.22 |  | O=C(c1ccc(-c2cccc(-c3cc[nH]n3)c2)o1)N1CCCCCC1 [10c, Azepan-1-yl(5-[3-(1H-pyrazol-3-yl)phenyl]furan-2-yl)methanone] | 13.1 | 81.1 ± 3 µM
4 | < 1.73 µM | 4.18 |  | O=C(Nc1ccc(F)cc1)c1ccc(-c2cccc(-c3cc[nH]n3)c2)o1 [12a, N-(4-Fluorophenyl)-5-[3-(1H-pyrazol-3-yl)phenyl]furan-2-carboxamide] |  | 4.53 ± 0.1 µM
5 | 2.41 ± 0.3 µM | 4.15 |  | COc1ccc(NC(=O)c2ccc(-c3cccc(-c4cc[nH]n4)c3)o2)cc1 [12b, N-(4-Methoxyphenyl)-5-[3-(1H-pyrazol-3-yl)phenyl]-furan-2-carboxamide] | 8.70 | 21 ± 1.5 µM
6 | 11.6 ± 0.3 µM | 2.6 |  | O=C(c1ccc(-c2cccc(-c3cc[nH]n3)c2)o1)N1CCOCC1 [21a] |  | 
7 | 13 ± 2.5 µM | 2.87 |  | Cc1cc(-c2cccc(-c3ccc(C(=O)N4CCOCC4)o3)c2)n[nH]1 [21b, Morpholino-(5-[3-(5-methyl-1H-pyrazol-3-yl)phenyl]furan-2-yl)methanone] |  | 
8 |  | 3.92 |  | O=C(c1ccc(-c2cccc(-c3cc(-c4ccccc4)[nH]n3)c2)o1)N1CCOCC1 [21c, Morpholino-(5-[3-(5-phenyl-1H-pyrazol-3-yl)phenyl]furan-2-yl)methanone] |  | 4.13 ± 0.12 µM
9 |  | 4.3 |  | Cc1ccc(-c2cc(-c3cccc(-c4ccc(C(=O)N5CCOCC5)o4)c3)n[nH]2)cc1 [21d, Morpholino[5-(3-[5-(p-tolyl)-1H-pyrazol-3-yl]phenyl)furan-2-yl]methanone] |  | 3.25 ± 0.3 µM
10 | < 1.4 µM | 3.96 |  | COc1ccc(-c2cc(-c3cccc(-c4ccc(C(=O)N5CCOCC5)o4)c3)n[nH]2)cc1 [21e, Morpholino[5-(3-[5-(4-methoxyphenyl)-1H-pyrazol-3-yl]phenyl)furan-2-yl]methanone] |  | 2.09 ± 0.1 µM
11 | < 1.28 µM | 4.33 |  | O=C(c1ccc(-c2cccc(-c3cc(-c4ccc(C(F)(F)F)cc4)[nH]n3)c2)o1)N1CCOCC1 [21f, Morpholino(5-[3-(5-[4-(trifluoromethyl)phenyl]-1H-pyrazol-3-yl)phenyl]furan-2-yl)-methanone] |  | 3.28 ± 0.11 µM
12 | 241 ± 3 µM | 4.61 | 239.6 to 241.8 °C | O=C(c1ccc(-c2cccc(-c3cc(-c4ccccc4)[nH]n3)c2)s1)N1CCOCC1 [21g, Morpholino(5-[3-(5-phenyl-1H-pyrazol-3-yl)phenyl]thiophen-2-yl)methanone] |  | 
13 | 4.1 ± 0.12 µM | 4.64 |  | COc1ccc(-c2cc(-c3cccc(-c4ccc(C(=O)N5CCOCC5)s4)c3)n[nH]2)cc1 [21h, [5-(3-[5-(4-Methoxyphenyl)-1H-pyrazol-3-yl]phenyl)thiophen-2-yl](morpholino)methanone] | 10.2 | 41.9 ± 2.2 µM
14 | 2.29 ± 0.1 µM | 5.04 |  | O=C(c1ccc(-c2cccc(-c3cc(-c4ccc(C(F)(F)F)cc4)[nH]n3)c2)s1)N1CCOCC1 [21i, Morpholino(5-[3-(5-[4-(trifluoromethyl)phenyl]-1H-pyrazol-3-yl)phenyl]thiophen-2-yl)-methanone] | 33.4 | 76.4 ± 3 µM
15 | 223 ± 2 µM | 2.56 |  | Cn1c(C(=O)N2CCOCC2)ccc1-c1cccc(-c2cc[nH]n2)c1 [21j, Morpholino(5-[3-(1H-pyrazol-3-yl)phenyl]-1-methyl-1H-pyrrol-2-yl)methanone] |  | 
16 | 0.3 ± 0.1 µM |  |  | CCOC(=O)c1ccc(OCCC2CCN(c3ccc(C)nn3)CC2)cc1 [Pirodavir, reference compound] |  | > 54 µM
17 | 15.1 ± 1 µM | 3.25 |  | O=C(NC1CC1)c1ccc(-c2cccc(-c3cc[nH]n3)c2)o1 [compound 13, N-Cyclopropyl-5-[3-(1H-pyrazol-3-yl)phenyl]furan-2-carboxamide] |  | 
18 |  | 3.15 |  | COCCNC(=O)c1ccc(-c2cccc(-c3cc[nH]n3)c2)s1 [compound 14, N-(2-Methoxyethyl)-5-[3-(1H-pyrazol-3-yl)phenyl]thiophene-2-carboxamide] |  | 22.4 ± 2.5 µM
19 | 34.6 ± 1 µM | 2.75 |  | Cn1ccc(-c2cccc(-c3ccc(C(=O)N4CCOCC4)o3)c2)n1 [compound 23, Morpholino(5-[3-(1-methyl-1H-pyrazol-3-yl)phenyl]furan-2-yl)methanone] |  | 
